Patent US7605272B2, “IGF-1R inhibitor” (Kyowa Hakko Kirin Co., Ltd., priority 2005, dated 2009)
Where two headings read alike, the source gives them in different places.

What was measured:
[1] = test system: NCI-H929; experiment: Cytostatic activity on human multiple myeloma cell line NCI-H929 (WST-1); assay type: cell-based; details: for inhibition at 1 µM / inhibition at 10 µM: Homo sapiens, NCI-H929, 72 h; for inhibition at 1 µM: read-out: cytostatic rate (%) H929 (1 μmol/L); for inhibition at 10 µM: 10 μmol/L, read-out: cytostatic rate (%) H929 (10 μmol/L)
Experimental: (§1) The cytostatic rates of a test compound on human multiple myeloma cell lines NCI-H929 and KMS-11, were determined in the following manner.
(§2) For culturing NCI-H929, Roswell Park Memorial Institute's Medium (RPMI) 1640 (Gibco, Catalog No. 11875-093) containing 15% fetal bovine serum (Gibco, Catalog No. 10099-141), 1 mmol/L sodium pyruvate (Gibco, Catalog No. 11360-070), 10 mmol/L HEPES (Gibco, Catalog No. 15630-80), 4.5 g/L glucose (Sigma, Catalog No. G8769), 0.05 mmol/L 2-mercaptethanol (Nacalai Tesque, Catalog No. 21418-42) and penicillin/streptomycin (1:1) (Gibco, Catalog No. 15140-122) was used. For culturing KMS-11 cell, RPMI 1640 medium containing 10% fetal bovine serum and penicillin/streptomycin (1:1) was used. Each 80 μL of the NCI-H929 cell having a concentration of 1×10^5 cells/mL (or the KMS-11 cell having a concentration of 7.5×10^4 cells/mL) was inoculated to wells of a TC MICROWELL 96U plate (Nalge Nunc International, Catalog No. 163320) and was cultured in a 5% carbon dioxide gas incubator at 37° C. for 24 hours. Each 20 μL of a solution of the test compound in dimethyl sulfoxide (DMSO) which was prepared to make the final concentration to 1 μmol/L or 10 μmol/L, was added to each well. Each 20 μL of DMSO was added to the control well and the blank well to a final concentration of 0.1%. After adding the test compound, the cells were incubated in a 5% carbon dioxide gas incubator at 37° C. for 72 hours except for the blank well. After adding 20 μL of WST-1 reagent {4-[3-(4-iodophenyl)-2-(4-nitrophenyl)-2H-5-tetrazolio]-1,3-benzene disulfonate sodium salt} (Roche Diagnostics K.K., Catalog No. 1644807), which was diluted to 50% by RPMI medium to each well, the cells were further incubated at 37° C. for 2 hours. Then, the absorbances at 450 nm (reference wavelength: 690 nm) were measured with a microplate spectrophotometer SPECTRA max 340PC (Molecular Devices Corporation). The relative growth (%) of a well to which the test compound had been added and cultured for 72 hours was determined while setting the absorbance of a well to which not the test compound but DMSO alone had been added and cultured for 72 hours (control) as 100% and that of a well where the drugs are added (blank) as 0%. The cytostatic rate (%) of the test compound was determined by subtracting the calculated relative growth from 100.

[2] = test system: KMS-11; experiment: Cytostatic activity on human multiple myeloma cell line KMS-11 (WST-1); assay type: cell-based; details: Homo sapiens, 72 hours; for inhibition at 10 µM: 10 μmol/L, read-out: cytostatic rate (%) KMS-11 (10 μmol/L)
Experimental: as §1, §2

[3] = molecular target: T1, IGF-1R (Homo sapiens, UniProt P08069); experiment: IGF-1R inhibitory activity (kinase reaction, time-resolved fluoroimmunoassay); assay type: biochemical; details: test compound 10 μmol/L
T1 construct: purchased Upstate Co. 14-465
T1 sequence (P08069 959-1367 limits assumed): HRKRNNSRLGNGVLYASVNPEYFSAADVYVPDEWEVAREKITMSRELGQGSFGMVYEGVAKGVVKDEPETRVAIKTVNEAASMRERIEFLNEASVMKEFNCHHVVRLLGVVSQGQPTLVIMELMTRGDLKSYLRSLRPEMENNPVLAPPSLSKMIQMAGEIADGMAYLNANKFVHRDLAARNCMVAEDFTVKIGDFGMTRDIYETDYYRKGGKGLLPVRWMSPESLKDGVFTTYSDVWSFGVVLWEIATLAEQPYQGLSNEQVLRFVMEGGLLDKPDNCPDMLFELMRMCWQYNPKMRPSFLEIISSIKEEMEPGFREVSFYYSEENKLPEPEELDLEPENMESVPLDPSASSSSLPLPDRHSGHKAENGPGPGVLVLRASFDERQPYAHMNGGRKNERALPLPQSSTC
In short: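 Compounds were tested at a single 10 μmol/L concentration. Each was incubated with recombinant IGF-1R (200 μg/L), 10 mmol/L ATP, MgCl2/MnCl2 and Na3VO4 (pH 7.5) on immobilized poly(Glu-Tyr) peptide for 30 min at 24° C. Eu-anti-phosphotyrosine time-resolved fluorescence (340/615 nm) gave relative activity against no-compound and no-enzyme wells, reported as % inhibition.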

[4] = IGF-1R active recombinant enzyme

inhibition at 10 µM [3, 4]	inhibition at 10 µM [3]	Structure (SMILES)	inhibition at 10 µM ([1]; 72 hours)	inhibition at 10 µM ([2]; KMS-11, 72 h)	further results
109%	–	CN[C@@H]1CN(CCCOc2ccc(/C=C/c3n[nH]c4ccccc34)c(NC(=O)c3sccc3C)c2OC)C[C@H]1OC (relative stereo) [Compound 348, (E)-N-(6-[2-(1H-indazol-3-yl)vinyl]-2-methoxy-3-{3-[(3R*,4R*)-3-methoxy-4-(methylamino)pyrrolidin-1-yl]propoxy}phenyl)-3-methylthiophene-2-carboxamide]	–	–	inhibition at 1 µM ([1]; 1 μmol/L, 72 hours): 116%; inhibition at 1 µM ([2]; KMS-11, 72 h, 1 μmol/L, read-out: cytostatic rate (%) KMS-11 (1 μmol/L)): 117%
71.2%	–	O=[N+]([O-])c1ccccc1/C=C/c1n[nH]c2ccccc12 [Compound 1, (E)-3-[2-(2-nitrophenyl)vinyl]-1H-indazole]	105%	80.2%	–
99.1%	–	O=C(Nc1ccccc1/C=C/c1n[nH]c2ccccc12)c1ccc(F)cc1 [Compound 3, (E)-4-fluoro-N-{2-[2-(1H-indazol-3-yl)vinyl]phenyl}benzamide]	115%	118%	–
98.5%	–	COc1ccc(C(=O)Nc2ccccc2/C=C/c2n[nH]c3ccccc23)cc1 [Compound 4, (E)-N-{2-[2-(1H-indazol-3-yl)vinyl]phenyl}-4-methoxybenzamide]	114%	130%	–
99.1%	–	Cc1ccc(C(=O)Nc2ccccc2/C=C/c2n[nH]c3ccccc23)cc1 [Compound 5, (E)-N-{2-[2-(1H-indazol-3-yl)vinyl]phenyl}-4-methylbenzamide]	116%	129%	–
97.8%	–	O=C(Nc1ccccc1/C=C/c1n[nH]c2ccccc12)c1cccnc1 [Compound 6, (E)-N-{2-[2-(1H-indazol-3-yl)vinyl]phenyl}nicotinamide]	115%	120%	–
98.6%	–	O=C(Nc1ccccc1/C=C/c1n[nH]c2ccccc12)c1cccc(F)c1 [Compound 7, (E)-3-fluoro-N-{2-[2-(1H-indazol-3-yl)vinyl]phenyl}benzamide]	115%	121%	–
99.5%	–	O=C(Nc1ccccc1/C=C/c1n[nH]c2ccccc12)c1ccccc1F [Compound 8, (E)-2-fluoro-N-{2-[2-(1H-indazol-3-yl)vinyl]phenyl}benzamide]	118%	126%	–
74.3%	–	CC(=O)Nc1ccccc1/C=C/c1n[nH]c2ccccc12 [Compound 9, (E)-N-{2-[2-(1H-indazol-3-yl)vinyl]phenyl}acetamide]	59%	99.8%	–
99.1%	–	O=C(Nc1ccccc1/C=C/c1n[nH]c2ccccc12)c1ccncc1 [Compound 10, (E)-N-{2-[2-(1H-indazol-3-yl)vinyl]phenyl}isonicotinamide]	113%	102%	–
99.4%	–	O=C(Nc1ccccc1/C=C/c1n[nH]c2ccccc12)c1ccco1 [Compound 11, (E)-N-{2-[2-(1H-indazol-3-yl)vinyl]phenyl}furan-2-carboxamide]	116%	120%	–
–	97.1%	COC(=O)c1ccc(/C=C/c2n[nH]c3ccccc23)c(NC(=O)c2sccc2C)c1 [Compound 97, (E)-4-[2-(1H-indazol-3-yl)vinyl]-3-[(3-methylthiophen-2-ylcarbonyl)amino]benzoic acid methyl ester]	–	100%	–
–	97.4%	Cc1ccsc1C(=O)Nc1cc(C(=O)N2CCNCC2)ccc1/C=C/c1n[nH]c2ccccc12 [Compound 99, (E)-N-{2-[2-(1H-indazol-3-yl)vinyl]-5-(piperazin-1-ylcarbonyl)phenyl}-3-methylthiophene-2-carboxamide]	–	118%	–
–	97%	Cc1ccsc1C(=O)Nc1ccc(OCCN2CCOCC2)cc1/C=C/c1n[nH]c2ccccc12 [Compound 103, (E)-N-{2-[2-(1H-indazol-3-yl)vinyl]-4-(2-morpholinoethoxy)phenyl}-3-methylthiophene-2-carboxamide]	130%	–	–
–	98.3%	Cn1cccc1C(=O)Nc1ccc(OCCN2CCOCC2)cc1/C=C/c1n[nH]c2ccccc12 [Compound 104, (E)-N-{2-[2-(1H-indazol-3-yl)vinyl]-4-(2-morpholinoethoxy)phenyl}-1-methylpyrrole-2-carboxamide]	130%	–	–
–	–	Nc1ccc(C(=O)Nc2ccc(OCCN3CCOCC3)cc2/C=C/c2n[nH]c3ccccc23)s1 [Compound 106, (E)-5-amino-N-{2-[2-(1H-indazol-3-yl)vinyl]-4-(2-morpholinoethoxy)phenyl}thiophene-2-carboxamide]	112%	115%	–
–	98.5%	CCCNC(=O)c1ccc(/C=C/c2n[nH]c3ccccc23)c(NC(=O)c2sccc2C)c1 [Compound 112, (E)-N-{2-[2-(1H-indazol-3-yl)vinyl]-5-(N-propylcarbamoyl)-phenyl}-3-methylthiophene-2-carboxamide]	–	126%	–
–	98.6%	CCN(C)C(=O)c1ccc(/C=C/c2n[nH]c3ccccc23)c(NC(=O)c2sccc2C)c1 [Compound 113, (E)-N-{5-(N-ethyl-N-methylcarbamoyl)-2-[2-(1H-indazol-3-yl)vinyl]phenyl}-3-methylthiophene-2-carboxamide]	–	121%	–
–	98.3%	Cc1ccsc1C(=O)Nc1cc2c(cc1/C=C/c1n[nH]c3ccccc13)OCO2 [Compound 130, (E)-N-{6-[2-(1H-indazol-3-yl)vinyl]benzo[1,3]dioxol-5-yl}-3-methylthiophene-2-carboxamide]	126%	–	–
–	94.1%	Cn1cccc1C(=O)Nc1cc2c(cc1/C=C/c1n[nH]c3ccccc13)OCO2 [Compound 131, (E)-N-{6-[2-(1H-indazol-3-yl)vinyl]benzo[1,3]dioxol-5-yl}-1-methylpyrrole-2-carboxamide]	122%	–	–
70.4%	–	CC(=O)N1CCN(c2ccccc2/C=C/c2n[nH]c3ccccc23)CC1 [Compound 133, (E)-4-acetyl-1-{2-[2-(1H-indazol-3-yl)vinyl]phenyl}piperazine]	62.9%	–	–
99%	–	OCc1ccn(-c2ccccc2/C=C/c2n[nH]c3ccccc23)c1 [Compound 168, (E)-1-{2-[2-(1H-indazol-3-yl)vinyl]phenyl}-1H-pyrrole-3-methanol]	106%	–	–
–	–	O=C(Nc1cc(C(=O)N2CCN(CCO)CC2)ccc1/C=C/c1n[nH]c2ccccc12)c1ccccc1 [Compound 290]	–	–	cytostatic rate (%) H929 (1 μmol/L) ([1]; 1 μmol/L, 72 hours): 93.8%; inhibitory activity (%) at 10 μmol/L [3, 4]: 95.7%
97.9%	–	COC1CCN(C(=O)c2ccc(/C=C/c3n[nH]c4ccccc34)c(N3Cc4c(N)cccc4C3=O)c2)CC1 [Compound 310, (E)-4-amino-2-{2-[2-(1H-indazol-3-yl)vinyl]-5-(4-methoxypiperidin-1-ylcarbonyl)phenyl}-2,3-dihydroisoindole-1-one]	–	–	inhibition at 1 µM ([1]; NCI-H929 cells, test compound 1 μmol/L, WST-1): 105%

Structure (SMILES)	inhibition at 10 µM [3, 4]	inhibition at 10 µM [3]	inhibition at 10 µM ([1]; 72 hours)	inhibition at 10 µM ([2]; KMS-11, 72 h)	further results
CCN(CC)C(=O)c1ccc(/C=C/c2n[nH]c3ccccc23)c(NC(=O)c2sccc2C)c1 [Compound 101, (E)-N-{5-(N,N-diethylcarbamoyl)-2-[2-(1H-indazol-3-yl)vinyl]phenyl}-3-methylthiophene-2-carboxamide]	–	100%	–	–	inhibition at 10 µM ([2]; KMS-11): 117%
